Assay [1] deals with NCI-H460 non-small cell carcinoma cells. Kind of assay: Sulphorodamine B cytotoxicity test on NCI-H460 cells. The class given is cell-based. The settings on record: SRB, read-out: IC50 ± SD, NCI-H460. As for the experimental part:
The chemical structures of the tested compounds of the invention and of the corresponding compounds bearing a carboxylic acid group are reported in FIG. 1. […] NB4 and NCI-H460 tumour cells were grown in RPMI 1640 containing 10% foetal bovine serum (GIBCO), HCT-116 tumour cells were grown in McCoy's 5A containing 10% foetal bovine serum (GIBCO), IGROV-1 and IGROV-1/Pt were grown in DMEM containing 10% foetal bovine serum (GIBCO),
(§1) Tumour cells were seeded in 96-well tissue culture plates at approximately 10% confluence and were allowed to attach and recover for at least 24 h. Varying concentrations of the drugs were then added to each well to calculate their IC50 value (the concentration which inhibits the 50% of cell survival). The plates were incubated for 24 h at 37° C. At the end of the treatment, for NB4 tumour cells in suspension, the procedure was performed as follows: medium culture was removed by centrifugation of the plates at 1600×g for 10 min and the surnatant was removed. 250 μl PBS were added, then the plates were centrifuged at 1600×g for 10 min, the surnatant was removed. 200 μl/well of medium culture RPMI 1640 containing 10% FCS were added and the plates were incubated at 37° C. for other 48 h. The plates were centrifuged again at 1600×g for 10 min, the medium culture was removed and 200 μl PBS and 50 μl of cold 80% TCA were added. The plates were incubated on ice for at least 1 h. TCA was removed, the plates were washed 3 times for immersion in distilled-water and dried on paper and at 40° C. for 5 min. Then 200 μl of 0.4% sulphorodamine B in 1% acetic acid were added. The plates were incubated at room temperature for other 30 min. Sulphorodamine B was removed, the plates were washed for immersion in 1% acetic acid for 3 times, then they were dried on paper and at 40° C. for 5 min. Then 200 μl Tris 10 mM were added, the plates were kept under stirring for 20 min. The survival cell was determined as optical density by a Multiskan spectrofluorimeter at 540 nm. For the tumour cells in adhesion (NCI-H460 and HCT-116), the procedure was as above mentioned, except that at the end of the treatment, the plates were washed by remotion of the surnatant and addition of PBS 3 times without centrifugation. Also the last day of the assay, the surnatant was removed without centrifugation.
(§2) The amount of cells killed was calculated as the percentage decrease in sulphorodamine B binding compared with control cultures. The IC50 values (the concentration which inhibits the 50% of cell survival) were calculated with the “ALLFIT” program.

The subject of assay [2] is NB4 human promyelocytic leukaemia. Kind of assay: Sulphorodamine B cytotoxicity test on NB4 cells. The class given is cell-based.
Description: (§3) The cytotoxic effect of some biphenyl and phenylnaphthyl compounds bearing a hydroxamic acid group is reported herein. […] The chemical structures of the tested compounds of the invention and of the corresponding compounds bearing a carboxylic acid group are reported in FIG. 1. To test the effects of the compounds on cell growth, NB4 human promyelocytic leukaemia, NCI-H460 non-small cell carcinoma cells, H460/(R9A) (resistant to carboxylic acid-bearing compounds: ST1898, ST1926, ST1964), HCT-116 human colon carcinoma cells, IGROV-1 and IGROV-1/Pt (sensitive ovarian carcinoma and platinum-resistant ovarian carcinoma cells, respectively) were used. NB4 and NCI-H460 tumour cells were grown in RPMI 1640 containing 10% foetal bovine serum (GIBCO), HCT-116 tumour cells were grown in McCoy's 5A containing 10% foetal bovine serum (GIBCO), IGROV-1 and IGROV-1/Pt were grown in DMEM containing 10% foetal bovine serum (GIBCO),
as §1, §2

Assay [3] has as its system NB4 promyelocytic leukaemia cells. Kind of assay: Differentiation of NB4 tumour cells by nitroblue tetrazolium (NBT) reduction, with or without ATRA. The assay is classed as cell-based, human. The settings on record: compound alone (without ATRA), 3 days, NBT-reducing activity. The source says: Relevant aspects of the differentiation program set in motion by ATRA in APL cells can be reproduced in primary cultures of leukemic blasts and in the derived NB4 cell line, which is a unique model for the study of the pharmacologic activity of ATRA and derivatives. Pharmacological concentrations of ATRA arrest the growth of NB4 blasts and differentiate them into cells that resemble mature neutrophils. This is followed by a slow process of apoptosis. […] In particular, the differentiation of NB4 tumour cells induced by the compounds was determined by nitroblue tetrazolium (NBT) reduction. NB4 promyelocytic leukaemia cells were seeded at a density of 150000 cells/ml in RPMI 1640 medium containing 10% FCS. To measure the cytodifferentiating effect of the molecules, tumour cells were treated with the compounds at different concentrations starting from at least 0.4 μM to 0.01 μM, whereas to measure the enhancing action of the molecules of ATRA activity, NB4 cells were treated with increasing concentrations of the molecules in the presence or absence of ATRA at a suboptimal concentration (5 nM).
Tumour cells were incubated for 3 days at 37° C. without replacing the medium culture. To measure the prodifferentiative effect, 500,000 cells were collected, centrifuged and resuspended in 1 ml of RPMI 1640 medium containing 10% FCS, 1 mg/ml of nitroblue tetrazolium (NBT) and 100 ng of PMA (4-phorbol-12-myristate-13-acetate). The tumour cells resuspended were incubated at 37° C. for 60 min. At the end of the incubation, tumour cells were centrifuged and the pellet was resuspended in 1 ml of PBS containing Triton ×100 at 10%. The samples were sonicated and the absorbance was determined at 540 nm with a spectrophotometer. Differentiation of tumor cells as AC50 (activating concentration) was evaluated as the concentration of the compound giving 50% of the maximal induction of NBT-reducing activity with or without ATRA.

In assay [4] the test system is NCI-H460 R9A tumour cells (H460/(R9A), resistant to carboxylic acid-bearing compounds). Kind of assay: Sulphorodamine B cytotoxicity test on ST1926-resistant NCI-H460 R9A cells. The assay is classed as cell-based. The settings on record: for RI (resistance index): IC50 on resistant tumour cell line/IC50 on sensitive tumour cell line (NCI-H460 R9A / NCI-H460); for IC50: Table 3, resistant NCI-H460 R9A, SRB, read-out: IC50 ± SD, NCI-H460 R9A; for overcoming of resistance on H460/R9A: H460/R9A versus sensitive NCI-H460, result in words.
Description: as §3, §1, §2
The resistant tumour cell line NCI H460 R9A was a clone selected for the resistance to ST1926 (Table 3). To obtain the resistant tumour cell line, the sensitive NCI-H460 tumour cells were treated with 2 μM ST1926 for 24 hours and maintained in drug-free medium for a recovering time of 7 days. Then, survived cells were cultured applying a continuous selective pressure of 2 μM (10×IC50) ST1926. Resistant NCI-H460 cells were subculture for 3-4 times before increasing ST1926 concentration to 4 μM (20×IC50). Survived cells were seeded in 96-well plates to isolate resistant cells clones and maintained in complete medium with 4 μM of ST1926. The tumour cell line was maintained at least for one week, before seeding for SRB cytotoxicity assay, in drug-free medium.
To evaluate the effect of the compound on survival cells, the sulphorodamine B test was used. […]

Assay [5] concerns IGROV-1/Pt (platinum-resistant ovarian carcinoma cells). Kind of assay: Sulphorodamine B cytotoxicity test on IGROV-1/Pt cells. The settings on record: read-out: IC50 ± SD, IGROV-1/Pt. The assay is classed as cell-based.
Description: as §3, §1, §2

Assay [6] concerns HCT-116 human colon carcinoma cells. Nature of the assay: Sulphorodamine B cytotoxicity test on HCT-116 cells. The settings on record: Homo sapiens, Table 2, SRB, read-out: IC50 ± SD, HCT-116. The class given is cell-based.
Description: as §3, §1, §2

Assay [7] deals with IGROV-1 (sensitive ovarian carcinoma cells). Nature of the assay: Sulphorodamine B cytotoxicity test on IGROV-1 cells. The settings on record: read-out: IC50 ± SD, IGROV-1. The class given is cell-based.
Description: as §3, §1, §2

Setting [8] is: Table 4, NB4 tumour cells, compound alone, read-out: IC50 (μM ± SD).
Where [9] appears, read: Homo sapiens, NCI-H460, Table 2, NCI-H460.
The mark [10] stands for this setting: Homo sapiens, NCI-H460, Table 3, sensitive NCI-H460.
Where [11] appears, read: Homo sapiens, NB-4, Table 4, NB4 tumour cells, compound alone, read-out: IC50 (μM ± SD).
The mark [12] stands for this setting: Homo sapiens, NB-4, Table 1, NB4, 24 h treatment, 48 h recovery, SRB, read-out: IC50 ± SD, NB4.

Read-outs that look alike come from different tables or passages of the source.

Turning to `O=C(O)/C=C/c1ccc(-c2ccc(O)c(C34CC5CC(CC(C5)C3)C4)c2)cc1` [ST1926, E-3-(4′-hydroxy-3′-adamantylbiphenyl-4-yl)acrylic acid, reference compound], the IC50 in assay [1] (Table 3, sensitive NCI-H460) amounted to 130 ± 10 nM; in assay [2] (setting [8]), 0.082 ± 0.005 µM; in assay [4] it was 10100 ± 700 nM. Further, the “Differentiation AC50” value in assay [3] is on record as “no differentiation”. The “RI (resistance index)” value in assay [4] stood at 77.7.
As for `O=C(C=Cc1ccc(-c2cc3c(c(C45CC6CC(CC(C6)C4)C5)c2)OCCO3)cc1)NO` [ST3081, 3-[4-(8-Adamantan-1-yl-2,3-dihydro-benzo[1,4]dioxin-6-yl)-phenyl]-N-hydroxy-acrylamide], the IC50 in assay [5] (Homo sapiens, Table 2, SRB) worked out at 840 ± 20 nM; in assay [1] (setting [9]), 1000 ± 40 nM; in assay [1] (setting [10]) it was 1480 ± 190 nM; in assay [6] it was 2550 ± 30 nM; in assay [4] (Homo sapiens), 1390 ± 140 nM; in assay [7] (Homo sapiens, Table 2, SRB), 1220 ± 40 nM. For the same compound, the “overcoming of resistance on H460/R9A” value in assay [4] was “the same characteristic are retained”. The “RI (resistance index)” value in assay [4] was determined as 0.94.
Turning to “E,E-5-biphenylyl-pentadienoic acid N-hydroxyamide [ST3400, reference compound]”, in assay [2] (setting [8]), the IC50 stood at 0.66 ± 0.003 µM. In addition, in assay [3], the “Differentiation AC50” value is reported as “no differentiation”.
For `O=C(O)c1ccc2cc(-c3ccc(O)c(C45CC6CC(CC(C6)C4)C5)c3)ccc2c1` [ST1964, 6-[3′-(1-adamantyl)-4′-hydroxyphenyl]-2-naphthalenecarboxylic acid, reference compound], the IC50 worked out at 370 ± 20 nM in assay [1] (setting [10]), 0.4 ± 0.05 µM in assay [2] (setting [11]) and 12700 ± 700 nM in assay [4] (Homo sapiens). Moreover, in assay [3], the “Differentiation AC50” value is “no differentiation”. In addition, the “RI (resistance index)” value in assay [4] came out at 34.
Consider `O=C(/C=C/c1ccc(-c2ccc(O)c(C34CC5CC(CC(C5)C3)C4)c2)c(Cl)c1)NO` [ST3088, E-3-(3′-Adamantan-1-yl-2-chloro-4′-hydroxy-biphenyl-4-yl)-N-hydroxy-acrylamide], for which the IC50 in assay [5] (Homo sapiens, Table 2, SRB) was 1610 ± 100 nM; in assay [1] (setting [9]), 5400 ± 300 nM; in assay [1] (setting [10]), 5400 ± 300 nM; in assay [6] it was 5400 ± 900 nM; in assay [4] (Homo sapiens), 7500 ± 100 nM; in assay [7] (Homo sapiens, Table 2, SRB) it was 1340 ± 40 nM. Moreover, the “overcoming of resistance on H460/R9A” value in assay [4] was “the same characteristic are retained”. In addition, in assay [4], the “RI (resistance index)” value is 1.4.
Consider `COc1ccc(-c2ccc(/C=C/C(=O)NO)cc2)cc1C12CC3CC(CC(C3)C1)C2` [ST3056, E-3-(3′-Adamantan-1-yl-4′-methoxy-biphenyl-4-yl)-N-hydroxy-acrylamide], for which the IC50 came out at 1790 ± 70 nM in assay [5] (Homo sapiens, Table 1, SRB); 620 ± 40 nM in assay [1] (setting [9]); 620 ± 40 nM in assay [1] (setting [10]); 0.6 ± 0.05 µM in assay [2] (setting [12]); 1300 ± 100 nM in assay [6]; 1200 ± 40 nM in assay [4] (Homo sapiens). Also, in assay [7] (Homo sapiens, Table 1, SRB), the IC50 is 960 ± 30 nM. Further, in assay [4], the “overcoming of resistance on H460/R9A” value is “completely overcame the resistance”. For the same compound, the “RI (resistance index)” value in assay [4] stood at 1.9.
As for `O=C(O)/C=C/c1ccc(-c2ccc(O)cc2)cc1` [ST2188, E-4-(4-hydroxyphenyl)cinnamic acid, reference compound], the IC50 was found to be 156000 ± 2000 nM in assay [5] (Homo sapiens, Table 1, SRB); 78.7 ± 7.4 µM in assay [2] (setting [12]); 89000 ± 11000 nM in assay [7] (Homo sapiens, Table 1, SRB).
With `O=C(/C=C/c1ccc(-c2ccccc2)cc1)NO` [ST3256, E-3-(biphenyl-4-yl)-N-hydroxy-acrylamide, reference compound], in assay [2] (setting [11]), the IC50 came out at 0.9 ± 0.1 µM. The “Differentiation AC50” value in assay [3] is on record as “no differentiation”.
As for `COc1ccc(-c2ccc(/C=C/C(=O)O)cc2)cc1C12CC3CC(CC(C3)C1)C2` [ST1898, reference compound], the IC50 is 1430 ± 50 nM in assay [5] (Table 1, SRB); 1200 ± 20 nM in assay [1] (Table 3, sensitive NCI-H460); 1.1 ± 0.07 µM in assay [2] (Table 1, NB4, 24 h treatment, 48 h recovery, SRB, read-out: IC50 ± SD, NB4); 64400 ± 5000 nM in assay [4]; 1190 ± 50 nM in assay [7] (Table 1, SRB). Further, the “RI (resistance index)” value in assay [4] stood at 53.6.
For the compound `CN(C)c1ccc(-c2ccc(/C=C/C(=O)NO)cc2)cc1` [ST3444, E-3-[4′-dimethylaminobiphenyl-4-yl]-N-hydroxy-acrylamide, reference compound], the IC50 in assay [2] (setting [11]) came out at 0.86 ± 0.05 µM. Moreover, in assay [3], the “Differentiation AC50” value is reported as “no differentiation”.

(Values after patent US7728039B2, “Biphenyl and Naphthyl-Phenyl Hydroxamic Acid Derivatives” (Sigma-Tau Industrie Farmaceutiche Riunite S.p.A., priority 2005, dated 2010).)
